Data reported in US9090535B2, “Hydroxylated tricyclic compounds” (Nektar Therapeutics, priority 2010, dated 2015).
Where a name gives a salt, the structure may show the parent alone. Read-outs that look alike come from different tables or passages of the source.

Assays:
[1] = biological target: T1, human norepinephrine transporter (hNET) (Homo sapiens, UniProt P23975); test: Binding affinity to human norepinephrine transporter (hNET), [3H]Nisoxetine displacement; conditions: membranes from MDCK cells expressing hNET, [3H]Nisoxetine 2 nM, read-out: NET binding, Ki
T1 construct: expressed in transfected cells; host or cells: MDCK cells
T1 sequence (P23975 whole entry): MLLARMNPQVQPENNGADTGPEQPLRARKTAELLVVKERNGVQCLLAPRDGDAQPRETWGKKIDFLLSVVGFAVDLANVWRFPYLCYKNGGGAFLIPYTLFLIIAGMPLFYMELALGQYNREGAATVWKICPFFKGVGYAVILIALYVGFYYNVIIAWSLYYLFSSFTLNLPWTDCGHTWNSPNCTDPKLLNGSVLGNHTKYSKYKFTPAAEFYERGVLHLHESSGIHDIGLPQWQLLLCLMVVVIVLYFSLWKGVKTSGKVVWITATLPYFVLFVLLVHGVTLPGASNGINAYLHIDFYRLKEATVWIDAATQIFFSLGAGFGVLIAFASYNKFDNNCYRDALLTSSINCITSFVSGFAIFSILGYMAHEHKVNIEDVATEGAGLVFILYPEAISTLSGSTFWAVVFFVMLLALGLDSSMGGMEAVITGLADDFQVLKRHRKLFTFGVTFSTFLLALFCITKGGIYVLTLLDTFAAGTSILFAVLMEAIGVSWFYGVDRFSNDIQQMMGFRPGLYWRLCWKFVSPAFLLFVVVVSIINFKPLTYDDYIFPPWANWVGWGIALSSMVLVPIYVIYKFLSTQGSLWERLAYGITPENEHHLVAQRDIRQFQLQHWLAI
Description: The binding affinities of certain compounds disclosed herein to the hNET were measured using competitive radioligand displacement assays in membranes prepared from MDCK cells that express the human norepinephrine transporter. Competition binding experiments were conducted by incubating hNET membranes with [^3H] Nisoxetine (2 nM), in the presence of increasing concentrations of test compounds. Incubations were carried out at 4° C. for 60 minutes in buffer containing 50 mM Tris HCl, 120 mM NaCl and 5 mM KCl (pH 7.4). The binding reaction was terminated by rapid filtration, membranes were washed and membrane-bound radioactivity was measured using a scintillation counter. Non-specific binding was measured in the presence of excess (10 μM) clomipramine as the unlabelled ligand and this value was subtracted from the total binding to yield the specific binding at each test compound concentration.
IC50 values were obtained from non-linear regression analysis of concentration-versus specific binding plots. Ki values were calculated from the IC50 values using the Cheng Prusoff correction and experimentally determined […] values for the radioligand under these assay conditions.

[2] = system: sodium channels (sodium current INa) in rat dorsal root ganglion (DRG) cells; test: Sodium channel assay, whole-cell patch clamp of sodium current in isolated DRG cells; assay type: cell-based
Description: The effect of compounds disclosed herein on sodium channels may be evaluated in vitro to determine their blocking properties using the whole-cell patch clamp method in isolated cardiac (human atrial myocytes) and neuronal (rat dorsal root ganglion) cells. The example below refers to a sodium channel assay using neuronal cells.
Electrophysiologic patch clamp recordings of the sodium current in isolated rat dorsal root ganglion (DRG) cells were used to measure the sodium channel blocking properties of certain compounds disclosed herein. DRG cells were isolated according to the method of Blair and Bean (J Neurosci, 22: pp. 10277-10290, 2002) and plated on treated glass coverslips. For measuring the sodium current, cells were perfused with an external solution that consists of (in mmol/L): 115 TMA chloride, 10 NaCl, 5 CsCl, 1.8 CaCl2, 1.2 MgCl2, 10 HEPES, 11 dextrose, pH adjusted to 7.4 with TMA-OH. The chemical composition of the internal solution was (in mmol/L): 115 CsF, 20 CsCl, 10 NaF, 10 HEPES, 5 EGTA; pH adjusted to 7.2 with CsOH. Currents were measured using the whole-cell variant of the patch clamp method (Crumb & Clarkson, Biophysical Journal, 57(3): 589, 1990). An Axopatch 1-B amplifier (Axon Instruments, Foster City, Calif.) was used for whole-cell voltage clamping. Creation of voltage clamp pulses and data acquisition were controlled by a PC running pClamp software (version 9.2, Axon Instruments). INa was elicited by a 40 ms pulse to −20 mV from a holding potential of −65 mV. Pacing rates of 0.1 and 3 Hz were examined. […]. Four concentrations of each test compound were added to the cell in a cumulative manner starting with the lowest test concentration. Each cell served as its own control and data are presented as % reduction of current amplitude achieved in the presence of drug. A nonlinear curve fitting routine was utilized to fit a three-parameter Hill equation to the results using MicroCal Origin, version 6.0 software. The equation was: […]

[3] = biological target: T2, cloned human hERG channel (Homo sapiens, UniProt Q12809); test: In vitro effect on hERG channels, whole-cell patch clamp in HEK cells; assay type: cell-based; conditions: 37 °C, read-out: IhERG, 0.1 HZ, IC50
T2 construct: expressed in transfected cells; host or cells: HEK cells
T2 sequence (Q12809 whole entry): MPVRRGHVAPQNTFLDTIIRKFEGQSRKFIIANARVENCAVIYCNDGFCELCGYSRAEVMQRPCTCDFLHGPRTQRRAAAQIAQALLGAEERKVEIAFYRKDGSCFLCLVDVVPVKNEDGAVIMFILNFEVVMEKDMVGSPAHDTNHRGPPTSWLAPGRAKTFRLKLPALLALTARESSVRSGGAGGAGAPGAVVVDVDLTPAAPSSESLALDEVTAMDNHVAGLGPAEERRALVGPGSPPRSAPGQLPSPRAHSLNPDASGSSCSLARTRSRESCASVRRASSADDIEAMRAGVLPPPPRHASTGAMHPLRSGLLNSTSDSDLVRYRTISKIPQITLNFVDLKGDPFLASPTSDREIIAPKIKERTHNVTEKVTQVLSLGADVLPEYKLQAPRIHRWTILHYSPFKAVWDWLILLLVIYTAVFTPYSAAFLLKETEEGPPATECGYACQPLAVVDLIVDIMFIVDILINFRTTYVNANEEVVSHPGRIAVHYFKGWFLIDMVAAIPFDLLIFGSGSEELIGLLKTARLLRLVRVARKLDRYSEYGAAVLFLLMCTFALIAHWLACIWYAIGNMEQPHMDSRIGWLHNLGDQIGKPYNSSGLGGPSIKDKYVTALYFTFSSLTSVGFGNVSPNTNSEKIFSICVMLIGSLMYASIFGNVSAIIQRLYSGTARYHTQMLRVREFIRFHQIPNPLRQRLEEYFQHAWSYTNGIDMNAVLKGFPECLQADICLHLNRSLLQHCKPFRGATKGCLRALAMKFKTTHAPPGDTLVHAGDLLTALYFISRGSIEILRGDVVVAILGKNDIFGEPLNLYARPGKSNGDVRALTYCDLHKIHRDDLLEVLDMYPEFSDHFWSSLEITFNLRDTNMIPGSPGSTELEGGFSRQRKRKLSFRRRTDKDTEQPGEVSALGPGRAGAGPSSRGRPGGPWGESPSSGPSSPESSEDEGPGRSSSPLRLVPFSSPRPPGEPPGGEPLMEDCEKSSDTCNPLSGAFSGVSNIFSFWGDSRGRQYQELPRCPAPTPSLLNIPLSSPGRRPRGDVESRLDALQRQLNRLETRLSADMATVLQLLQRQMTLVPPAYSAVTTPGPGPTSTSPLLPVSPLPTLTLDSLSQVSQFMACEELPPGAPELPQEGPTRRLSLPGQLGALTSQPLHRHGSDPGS
Description: Electrophysiological measurements of hERG current were made in vitro to assess the hERG block produced by certain compounds disclosed herein. hERG currents were measured in HEK cells expressing the cloned human hERG channel using the whole-cell variant of the patch clamp method. Experiments were performed at 37±1° C. An Axopatch 1-B amplifier (Axon Instruments, Foster City, Calif.) was used for whole-cell voltage clamping. Creation of voltage clamp pulses and data acquisition was controlled by a PC running pClamp software (version 9.2, Axon Instruments). After rupture of the cell membrane (entering whole-cell mode), current kinetics and amplitudes were allowed to stabilize for 3-5 minutes as the cell was dialyzed with internal solution and paced at 0.1 Hz. Cells were depolarized to +10 mV for 500 ms from a holding potential of −75 mV and peak hERG current was measured as the maximum outward deflection of the tail current elicited upon return to −40 mV (pacing rate=0.1 Hz). Four concentrations of each test compound were added to the cell in a cumulative manner starting with the lowest test concentration. Each cell served as its own control and data are presented as % reduction of current amplitude achieved in the presence of drug.
A nonlinear curve fitting routine was utilized to fit a three-parameter Hill equation to the results using MicroCal Origin, version 6.0 software. The equation was: […]

Ki ([1]; Table 3) [µM] | Ki ([1]; Table 2) [µM] | Molecule | IC50 ([3]; Table 3, pacing rate 0.1 Hz) [µM] | IC50 ([2]; Table 2, pacing rate 3 Hz) [µM] | IC50 ([3]; Table 2, pacing rate 0.1 Hz) [µM] | other results
– | – | COCCOCCOCCOCCOCCOCCOCCOCCOc1ccc2c(c1)CCc1ccccc1/C2=C\CCN(C)C [5-(3-Dimethylamino-propylidene)-10,11-dihydro-5H-dibenzo[a,d]cyclohept-E-en-2-OmPEG8 hydrochloride salt] | – | – | – | Ki ([1]; Table 1): 62.9 µM; IC50 ([2]; Table 1, pacing rate 3 Hz): 23.4 µM; IC50 ([3]; Table 1, pacing rate 0.1 Hz): 2.2 µM
30.6 | – | COCCOCCOCCOCCO[C@@H]1Cc2ccccc2/C(=C/CCN(C)C)c2ccccc21 [(R)-5-(3-dimethylamino-propylidene)-10-OmPEG4-10,11-dihydro-5H-dibenzo[a,d]cyclohept-Z-ene trifluoroacetate salt] | 21.5 | – | – | –
– | 60.4 | COCCOCCOCCOCCOCCOCCO[C@@H]1Cc2ccccc2/C(=C\CCN(C)C)c2ccccc21 [(R)-5-(3-dimethylamino-propylidene)-10-OmPEG6-10,11-dihydro-5H-dibenzo[a,d]cyclohept-E-ene trifluoroacetate salt] | – | 8.1 | 37.9 | –
– | 12.6 | COCCOCCOCCOCCO[C@H]1Cc2ccccc2/C(=C\CCN(C)C)c2ccccc21 [(S)-5-(3-dimethylamino-propylidene)-10-OmPEG4-10,11-dihydro-5H-dibenzo[a,d]cyclohept-E-ene trifluoroacetate salt] | – | 39.4 | 24.8 | –
– | – | CN(C)CCC=C1c2ccccc2CCc2ccccc21 [Amitriptyline, reference compound] | – | 7.1 | – | IC50 ([2]; Table 1, pacing rate 3 Hz): 7.1 µM
– | – | COCCOCCOCCOCCOc1ccc2c(c1)CCc1ccccc1/C2=C/CCN(C)C [5-(3-Dimethylamino-propylidene)-10,11-dihydro-5H-dibenzo[a,d]cyclohept-Z-en-2-OmPEG4 hydrochloride salt] | – | – | – | Ki ([1]; Table 1): 21.2 µM; IC50 ([2]; Table 1, pacing rate 3 Hz): 12.8 µM; IC50 ([3]; Table 1, pacing rate 0.1 Hz): 24.9 µM
– | 13.5 | COCCOCCOCCOCCOCCOCCOCCOCCO[C@@H]1Cc2ccccc2/C(=C\CCN(C)C)c2ccccc21 [(R)-5-(3-dimethylamino-propylidene)-10-OmPEG8-10,11-dihydro-5H-dibenzo[a,d]cyclohept-E-ene trifluoroacetate salt] | – | 21.2 | 55.9 | –
31.3 | – | COCCOCCOCCOCCOCCOCCO[C@@H]1Cc2ccccc2/C(=C/CCN(C)C)c2ccccc21 [(R)-5-(3-dimethylamino-propylidene)-10-OmPEG6-10,11-dihydro-5H-dibenzo[a,d]cyclohept-Z-ene trifluoroacetate salt] | 18.9 | – | – | –
4.37 | – | COCCOCCOCCOCCOCCOCCOCCOCCO[C@@H]1Cc2ccccc2/C(=C/CCN(C)C)c2ccccc21 [(R)-5-(3-dimethylamino-propylidene)-10-OmPEG8-10,11-dihydro-5H-dibenzo[a,d]cyclohept-Z-ene trifluoroacetate salt] | > 100 | – | – | –
0.97 | – | CN(C)CC/C=C1/c2ccccc2C[C@H](O)c2ccccc21 [(S)-5-(3-Dimethylamino-propylidene)-10,11-dihydro-5H-dibenzo[a,d]cyclohept-Z-en-10-ol, reference compound] | 7.2 | – | – | –
– | – | 5-(3-Dimethylamino-propylidene)-10,11-dihydro-5H-dibenzo[a,d]cyclohept-E-en-2-OmPEG6 hydrochloride salt | – | – | – | Ki ([1]; Table 1): 35.5 µM; IC50 ([2]; Table 1, pacing rate 3 Hz): 16.3 µM; IC50 ([3]; Table 1, pacing rate 0.1 Hz): 61.5 µM
27.4 | – | COCCOCCOCCOCCO[C@H]1Cc2ccccc2/C(=C/CCN(C)C)c2ccccc21 [(S)-5-(3-dimethylamino-propylidene)-10-OmPEG4-10,11-dihydro-5H-dibenzo[a,d]cyclohept-Z-ene trifluoroacetate salt] | 11.5 | – | – | –
– | 14 | COCCOCCOCCOCCOCCOCCOCCOCCO[C@H]1Cc2ccccc2/C(=C\CCN(C)C)c2ccccc21 [(S)-5-(3-dimethylamino-propylidene)-10-OmPEG8-10,11-dihydro-5H-dibenzo[a,d]cyclohept-E-ene trifluoroacetate salt] | – | 71.6 | > 100 | –
– | – | CN(C)CC/C=C1/c2ccccc2CCc2cc(O)ccc21 [(Z)-5-(3-(dimethylamino)propylidene)-10,11-dihydro-5H-dibenzo[a,d][7]annulen-2-ol, reference compound] | – | – | – | Ki ([1]; Table 1): 0.5 µM; IC50 ([2]; Table 1, pacing rate 3 Hz): 14.9 µM; IC50 ([3]; Table 1, pacing rate 0.1 Hz): 1.6 µM
– | 49.1 | COCCOCCO[C@@H]1Cc2ccccc2/C(=C\CCN(C)C)c2ccccc21 [(R)-5-(3-dimethylamino-propylidene)-10-OmPEG2-10,11-dihydro-5H-dibenzo[a,d]cyclohept-E-ene trifluoroacetate salt] | – | – | 14 | –
22.1 | – | COCCOCCOCCOCCOCCOCCO[C@H]1Cc2ccccc2/C(=C/CCN(C)C)c2ccccc21 [(S)-5-(3-dimethylamino-propylidene)-10-OmPEG6-10,11-dihydro-5H-dibenzo[a,d]cyclohept-Z-ene trifluoroacetate salt] | 38.3 | – | – | –
– | 4.45 | COCCO[C@@H]1Cc2ccccc2/C(=C\CCN(C)C)c2ccccc21 [(R)-5-(3-dimethylamino-propylidene)-10-OmPEG1-10,11-dihydro-5H-dibenzo[a,d]cyclohept-E-ene trifluoroacetate salt] | – | – | 12.1 | –
6.28 | – | CN(C)CC/C=C1/c2ccccc2C[C@@H](O)c2ccccc21 [(R)-5-(3-dimethylamino-propylidene)-10,11-dihydro-5H-dibenzo[a,d]cyclohept-Z-en-10-ol, reference compound] | 4.1 | – | – | –
– | – | COCCOCCOCCOCCOCCOCCOCCOCCOc1ccc2c(c1)CCc1ccccc1/C2=C/CCN(C)C [5-(3-Dimethylamino-propylidene)-10,11-dihydro-5H-dibenzo[a,d]cyclohept-Z-en-2-OmPEG8 hydrochloride salt] | – | – | – | Ki ([1]; Table 1): 646 µM; IC50 ([2]; Table 1, pacing rate 3 Hz): 16.9 µM; IC50 ([3]; Table 1, pacing rate 0.1 Hz): 26.4 µM
– | 2.53 | CN(C)CC/C=C1\c2ccccc2C[C@@H](O)c2ccccc21 [(R)-5-(3-dimethylamino-propylidene)-10,11-dihydro-5H-dibenzo[a,d]cyclohept-E-en-10-ol, reference compound] | – | 6.2 | 18 | –
– | 0.34 | CN(C)CC/C=C1\c2ccccc2C[C@H](O)c2ccccc21 [(S)-5-(3-Dimethylamino-propylidene)-10,11-dihydro-5H-dibenzo[a,d]cyclohept-E-en-10-ol, reference compound] | – | 16.6 | 23.2 | –
2.99 | – | COCCOCCOCCOCCOCCOCCOCCOCCO[C@H]1Cc2ccccc2/C(=C/CCN(C)C)c2ccccc21 [(S)-5-(3-dimethylamino-propylidene)-10-OmPEG8-10,11-dihydro-5H-dibenzo[a,d]cyclohept-Z-ene trifluoroacetate salt] | 32.8 | – | – | –
– | – | CN(C)CC/C=C1\c2ccccc2CCc2cc(O)ccc21 [(E)-5-(3-(dimethylamino)propylidene)-10,11-dihydro-5H-dibenzo[a,d][7]annulen-2-ol, reference compound] | – | – | – | Ki ([1]; Table 1): 0.16 µM
